We go through four molecules from ChEMBL document CHEMBL5614370, “Data-oriented protein kinase drug discovery” (Eur J Med Chem, 2024).

Broadly, the IC50 is the concentration needed to halve the response being measured.

For assay [1], the target named is Phosphatidylinositol 4,5-bisphosphate 3-kinase catalytic subunit alpha isoform (Homo sapiens, UniProt P42336). The assay can be described thus: Inhibition of PI3Kalpha (unknown origin).
For assay [2], the target named is Macrophage colony-stimulating factor 1 receptor (Homo sapiens, UniProt P07333). The assay can be described thus: Inhibition of CSF1R (unknown origin).
Assay [3] has as its target Hepatocyte growth factor receptor (Homo sapiens, UniProt P08581). The assay can be described thus: Inhibition of HGF receptor (unknown origin).

Phosphatidylinositol 4,5-bisphosphate 3-kinase catalytic subunit alpha isoform, sequence (P42336 whole entry, canonical isoform): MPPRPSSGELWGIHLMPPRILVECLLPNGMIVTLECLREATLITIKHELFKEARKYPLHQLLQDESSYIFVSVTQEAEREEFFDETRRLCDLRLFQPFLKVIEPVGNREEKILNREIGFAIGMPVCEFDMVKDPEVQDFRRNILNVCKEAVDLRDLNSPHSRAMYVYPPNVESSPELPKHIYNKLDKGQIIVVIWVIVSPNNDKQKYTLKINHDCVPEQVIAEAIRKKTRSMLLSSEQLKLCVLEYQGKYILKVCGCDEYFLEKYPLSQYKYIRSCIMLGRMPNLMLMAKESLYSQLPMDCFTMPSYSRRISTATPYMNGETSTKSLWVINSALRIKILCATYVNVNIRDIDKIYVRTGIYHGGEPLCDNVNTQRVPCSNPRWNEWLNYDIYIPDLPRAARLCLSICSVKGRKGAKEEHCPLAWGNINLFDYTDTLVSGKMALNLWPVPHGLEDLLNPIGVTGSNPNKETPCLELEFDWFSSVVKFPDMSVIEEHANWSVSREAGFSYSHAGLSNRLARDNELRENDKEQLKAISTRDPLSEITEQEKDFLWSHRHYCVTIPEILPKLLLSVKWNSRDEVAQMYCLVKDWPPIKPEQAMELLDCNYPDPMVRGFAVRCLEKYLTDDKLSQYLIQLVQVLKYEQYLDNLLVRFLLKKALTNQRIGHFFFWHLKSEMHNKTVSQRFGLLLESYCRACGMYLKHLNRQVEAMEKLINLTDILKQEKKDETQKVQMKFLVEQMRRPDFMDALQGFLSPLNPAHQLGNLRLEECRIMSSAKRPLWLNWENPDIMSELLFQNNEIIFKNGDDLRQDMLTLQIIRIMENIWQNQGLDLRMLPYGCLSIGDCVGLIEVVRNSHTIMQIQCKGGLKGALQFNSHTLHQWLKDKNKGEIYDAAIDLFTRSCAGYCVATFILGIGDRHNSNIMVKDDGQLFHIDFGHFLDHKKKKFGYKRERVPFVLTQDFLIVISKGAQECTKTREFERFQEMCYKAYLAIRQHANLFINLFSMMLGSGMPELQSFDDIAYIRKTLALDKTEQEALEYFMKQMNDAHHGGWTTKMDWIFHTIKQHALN
Hepatocyte growth factor receptor, sequence (P08581 whole entry): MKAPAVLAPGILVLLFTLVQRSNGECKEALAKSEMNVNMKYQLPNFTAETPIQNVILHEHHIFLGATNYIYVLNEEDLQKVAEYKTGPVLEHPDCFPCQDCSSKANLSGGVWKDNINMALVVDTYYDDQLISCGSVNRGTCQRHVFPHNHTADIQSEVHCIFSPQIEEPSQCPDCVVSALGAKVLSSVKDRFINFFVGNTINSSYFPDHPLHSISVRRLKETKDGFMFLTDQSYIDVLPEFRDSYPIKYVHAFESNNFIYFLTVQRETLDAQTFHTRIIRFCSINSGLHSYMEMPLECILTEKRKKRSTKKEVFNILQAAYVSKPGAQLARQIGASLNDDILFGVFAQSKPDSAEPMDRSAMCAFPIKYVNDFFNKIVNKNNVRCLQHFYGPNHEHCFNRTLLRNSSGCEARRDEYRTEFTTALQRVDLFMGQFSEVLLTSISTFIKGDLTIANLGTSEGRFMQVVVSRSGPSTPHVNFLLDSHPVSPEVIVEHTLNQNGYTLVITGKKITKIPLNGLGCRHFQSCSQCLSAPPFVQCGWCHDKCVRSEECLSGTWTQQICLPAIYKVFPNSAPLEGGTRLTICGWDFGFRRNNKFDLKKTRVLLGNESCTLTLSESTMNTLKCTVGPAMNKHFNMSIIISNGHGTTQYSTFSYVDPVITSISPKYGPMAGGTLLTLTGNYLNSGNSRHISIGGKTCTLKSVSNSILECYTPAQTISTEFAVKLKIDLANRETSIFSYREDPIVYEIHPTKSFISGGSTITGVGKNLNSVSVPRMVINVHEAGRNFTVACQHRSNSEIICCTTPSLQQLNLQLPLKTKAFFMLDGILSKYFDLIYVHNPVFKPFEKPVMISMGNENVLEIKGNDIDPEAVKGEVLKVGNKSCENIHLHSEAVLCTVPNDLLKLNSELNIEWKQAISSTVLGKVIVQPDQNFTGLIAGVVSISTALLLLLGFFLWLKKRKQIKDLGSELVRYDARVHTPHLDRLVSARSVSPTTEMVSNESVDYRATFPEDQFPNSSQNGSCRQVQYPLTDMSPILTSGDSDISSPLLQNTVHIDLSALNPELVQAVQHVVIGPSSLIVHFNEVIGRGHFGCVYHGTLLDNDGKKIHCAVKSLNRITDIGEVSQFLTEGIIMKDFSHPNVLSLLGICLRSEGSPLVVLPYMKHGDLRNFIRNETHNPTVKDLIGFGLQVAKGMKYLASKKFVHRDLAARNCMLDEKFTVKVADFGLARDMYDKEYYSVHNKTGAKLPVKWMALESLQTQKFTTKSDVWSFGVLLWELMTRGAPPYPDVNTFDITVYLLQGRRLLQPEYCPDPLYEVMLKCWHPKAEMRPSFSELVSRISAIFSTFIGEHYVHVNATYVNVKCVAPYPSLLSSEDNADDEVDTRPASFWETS
Macrophage colony-stimulating factor 1 receptor, sequence (P07333 whole entry): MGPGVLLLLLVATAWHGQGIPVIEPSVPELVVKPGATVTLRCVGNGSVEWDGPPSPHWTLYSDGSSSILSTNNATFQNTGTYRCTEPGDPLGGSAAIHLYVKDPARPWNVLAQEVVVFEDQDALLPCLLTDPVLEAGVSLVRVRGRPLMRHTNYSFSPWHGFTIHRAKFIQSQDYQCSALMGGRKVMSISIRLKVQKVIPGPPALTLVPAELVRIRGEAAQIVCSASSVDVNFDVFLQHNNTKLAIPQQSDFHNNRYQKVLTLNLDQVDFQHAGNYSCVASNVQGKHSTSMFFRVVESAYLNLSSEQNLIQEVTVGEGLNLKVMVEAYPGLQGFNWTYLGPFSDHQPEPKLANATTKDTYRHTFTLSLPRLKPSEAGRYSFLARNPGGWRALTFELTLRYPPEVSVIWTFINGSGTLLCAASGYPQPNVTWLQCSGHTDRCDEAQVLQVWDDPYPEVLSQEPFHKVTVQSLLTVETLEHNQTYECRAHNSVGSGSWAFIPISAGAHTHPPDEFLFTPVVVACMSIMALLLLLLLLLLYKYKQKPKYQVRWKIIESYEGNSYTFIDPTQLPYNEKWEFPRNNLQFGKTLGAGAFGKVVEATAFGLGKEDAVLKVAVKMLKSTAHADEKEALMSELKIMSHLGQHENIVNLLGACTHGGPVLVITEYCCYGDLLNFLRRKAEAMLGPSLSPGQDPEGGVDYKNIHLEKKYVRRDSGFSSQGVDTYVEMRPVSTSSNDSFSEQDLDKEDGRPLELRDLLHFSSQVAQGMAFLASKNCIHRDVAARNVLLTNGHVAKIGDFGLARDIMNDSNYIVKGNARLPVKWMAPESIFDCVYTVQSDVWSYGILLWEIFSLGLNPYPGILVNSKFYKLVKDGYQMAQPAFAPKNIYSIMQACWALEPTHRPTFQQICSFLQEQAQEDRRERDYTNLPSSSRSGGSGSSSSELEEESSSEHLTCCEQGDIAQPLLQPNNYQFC

`c1n[nH]c(-c2nc3c(s2)CCOc2cc(C4CNC4)ccc2-3)n1`: inhibition in assay [1] was half-maximal at 1.91 nM (IC50).

On to `c1n[nH]c(-c2nc3c(s2)CCOc2cc(-c4cn[nH]c4)ccc2-3)n1`, for which, in assay [1], half-maximal inhibition (IC50) required 0.269 nM.

`C1=C(c2cc(C3CNCNC3)ccc2NCc2ncc[nH]2)CCCC1`: it took 2.51 nM to reach half-maximal inhibition in assay [2] (IC50).

In the case of `C1=CN(c2ccccc2)CC(CNc2ccc(Oc3ccncc3)cc2)=C1`, the midpoint of inhibition in assay [3], the IC50, lay at 8.91 nM.
